Measurements: patent publication EP0427925A2, “Use of prophenytoin for preparing pharmaceutical preparations for treating stroke and cerebral ischemia” (WARNER-LAMBERT COMPANY, priority 1989, dated 1991)
Counter-ions that a name gives are not always drawn.

Assays:
[1] = test system: middle cerebral artery occlusion (MCAO) model; test: Middle cerebral artery occlusion (MCAO) model, infarct area and volume by TTC stain; assay type: in vivo, male F-344 rats; details: 37 mg/kg IV 30 minutes and 24 hours after occlusion
Text: The model depends on a surgical procedure which is a modification of that originally proposed by A. Tamura, et al, "Focal Cerebral Ischemia in the Rat: Description of Technique and Early Neuropathological Consequences Following Middle Cerebral Artery Occlusion," J. Cerb. Blood Flow Metab. Vol. 1, pp. 53-60 and is similar to the methods described by Duverger and MacKenzie, "The Quantification of Cerebral Infarction Following Local Ischemia in the Rat: Influence of Strain, Arterial Pressure, Blood Glucose Concentration and Age", J. Cerb. Blood Flow Metab., Vol. 8, pp. 449-461 and S. Brint, et al, "Focal Brain Ischemia in the Rat: Methods for Reproducible Neocortical Infarction Using Tandem Occlusion of the Distal Middle Cerebral and Ipsilateral Common Carotid Arteries", J. Cereb. Blood Flow Metab., Vol. 8, pp. 474-485.
Generally, male F-344 rats weighing 300-350 g are anesthetized in 2% halothane in room air. The right femoral vein is cannulated and the tubing led subcutaneously to an exit behind the neck to allow intravenous (IV) drug injection. The left common carotid is permanently occluded with a 6-0 silk ligature. The left middle cerebral artery (MCA) is exposed through a 2-mm burr hole drilled 1-2 mm rostral to the fusion of the zygomatic arch with the squamosal bone. The dura is cut, the MCA lifted off the surface of the brain, electrocauterized, and cut. The wound margins are sutured shut and the anesthesia stopped.
The stable pharmaceutical composition is used for the assay or a solution for the assay may be prepared as follows: The hydrated fosphenytoin sodium (2.25 H₂O equivalent per mole) is dissolved in saline (pH = 7) at a concentration of 37 mg/mL and administered at 1 mL/kg. This dose of 37 mg/kg is equal to 30 mg/kg of the free base of fosphenytoin sodium. In vivo fosphenytoin sodium or the phenytoin prodrug undergoes a phosphate ester cleavage followed by a dehydroxymethylation to yield the free base of phenytoin. The dose administered is equivalent to 21 mg/kg of the free base of phenytoin.
This solution is then administered intravenously (IV) 30 minutes and 24 hours after occlusion to groups of 12 animals each. Forty-eight hours following occlusion rats are anesthetized with ketamine (150 mg/kg, IP), decapitated, the brains rapidly removed, and placed on ice. With the aid of a brain mold (Activational Systems), the brain is sliced into four 2-mm sections: one section anterior (ANT) to the MCA and three sections posterior (ANT-MED, POST-MED, and POST) to the MCA. The sections are then placed for 30 minutes in a 2% solution of 2,3,5 triphenyltetrazolium chloride (TTC) in saline. The brains are stored in 10% neutral buffered […] for analysis.
The brains are coded and the analysis is performed blinded. The area of infarction in each section is outlined with the aid of a morphometric analysis program (Bioquant IV, R & M Biometrics). The TTC stain is converted into a red marker in live mitochondria, while the infarcted area remains white. The total volume of infarction is calculated from the areas of the four sections assuming three truncated cones. The mean area for each section and the mean total volume are calculated; vehicle and drug treatment are compared using the Student's t-test.

[2] = Compatibility with standard intravenous solutions (precipitate formation); assay type: physicochemical; details: solutions and mixes with standard intravenous solutions (dextrose, saline, Ringers lactate)
Text: Supplementary active ingredients can also be incorporated into the formulations of formula I and its salts. The formula I and its salts, and particularly fosphenytoin sodium, can be and is formulated so as to be compatible with the commonly used intravenous fluids including solutions based on dextrose, […] or 0.9% saline as well as more complicated solutions including/such as Ringers lactate, and the like.

[3] = section posterior to the MCA, forty-eight hours following occlusion, mean ± standard deviation, N = 12

SMILES: O=C1NC(c2ccccc2)(c2ccccc2)C(=O)N1COP(=O)(O)O [Disodium Salt of Prophenytoin, 3-(hydroxymethyl)-5,5-diphenylhydantoin disodium phosphate ester]
- % Change, POST ([1]; area of infarction vs Vehicle, Probability 0.006): -71.56%
- % Change, POS-MED ([1]; area of infarction vs Vehicle, Probability 0.008): -57.10%
- % Change, ANT-MED ([1]; area of infarction vs Vehicle, Probability 0.049): -22.82%
- % Change, ANT ([1]; area of infarction vs Vehicle, Probability 0.160): -18.58%
- TOTAL VOLUME of infarction ([1]; calculated from the areas of the four sections, forty-eight hours following occlusion, mean ± standard deviation, N = 12): 43.21 ±21.85
- area of infarction, ANT ([1]; section anterior to the MCA, forty-eight hours following occlusion, mean ± standard deviation, N = 12): 9.03 ± 2.91
- area of infarction, ANT-MED [1, 3]: 11.23 ± 2.95
- area of infarction, POS-MED [1, 3]: 5.23 ± 5.44
- area of infarction, POST [1, 3]: 2.97 ± 4.39
- % Change, TOTAL VOLUME ([1]; total volume of infarction vs Vehicle, Probability 0.010): -42.07%
- precipitate formation in standard intravenous solutions [2]: do not form precipitates
